Laboratory results taken from patent US11882828B2, “Mosquito vector control compositions, methods and products utilizing same” (priority 2015, dated 2024).

Experiments:
VK7 = assay: Example B5: bottle based cross resistance study (CDC bottle assay); format: in vivo; details: Anopheles coluzzii, 24 h, Table B5b, after 24 hours
Protocol: (§1) Based on the “CDC bottle assay” (described at http://www.cdc.gov/malaria/resources/pdf/fsp/ir_manual/ir_cdc_bioassay_en.pdf) 1 ml of ethanol containing a test compound at a defined concentration was added to a 250 ml glass bottle and the bottles were placed on a rolling table to coat the inner surfaces as the solvent evaporated. Once dry, twenty five non-blood fed adult female mosquitoes of the appropriate species and strains (each three day old) were aspirated from the stock culture and gently blown into the exposure bottles. The lid of the bottle was replaced and the bottle placed upright out of direct sun light under standard culture conditions, nominally 28C and 60-80% relative humidity.
(§2) A stopwatch was started, and the assessment of the knock-down were made after 15 minutes and 60 minutes. A mosquito was said to be knocked down if it was unable to stand, following the CDC definition. The bottles were replaced in an upright position when not being assessed.
(§3) After one hour the mosquitoes were carefully removed from the bottle with an aspirator and placed in a recovery cup. The mosquitoes were supplied with a 10% sucrose solution on a cotton wool bung, and stored under culture conditions. Assessments of the mortality were made after 24 hours.
(§4) Each treatment was replicated a minimum of four times, with the mean knockdown or mortality recorded. In each study, a set of bottles was infested with a known insecticide susceptible strain of mosquitoes from the same genera as the resistant strains.

FUMOZ = assay: as above; format: in vivo; details: Anopheles funestus, 24 h, Table B5b; 25 ppm; after 24 hours; FUMOZ
Protocol: as §1, §2, §3, §4

An. Gambiae Kisumu sus = assay: as above; format: in vivo; details: Anopheles gambiae, 24 h, Table B5b; 25 ppm; after 24 hours; Kisumu sus
Protocol: as §1, §2, §3, §4

Anopheles stephensi [1] = assay: Example B7: evaluation of insecticide impregnated polymer surfaces; format: in vivo; details: AI content 2 wt %; for mortality: 24 hours after exposure; for knock-down: after one hour
Description: (§5) Preparation of polymeric sheets: Certain methoxyacrylate were Impregnated into three polymers: LDPE (low density polyethylene), HDPE (high density polyethylene) and PP (polypropylene) in different concentrations by mixing the respective polymer with a compound at high temperatures and the resultant polymeric material were then mould into thin discs or plaques.
(§6) Twenty four hours prior to the relevant assessment intervals, three to five day old non-blood fed adult mosquitoes were taken from the culture and lightly anaesthetised with carbon dioxide. Ten females were selected and placed in a 250 ml plastic cup, retained with a net lid, provided with a 10% sucrose solution soaked in a cotton wool bung and held under culturing environmental conditions.
(§7) After twenty four hours, impregnated polymer sheets (measuring about 150 mm in diameter and about 0.1 mm in thickness) were removed from storage and wrapped around the glazed side of an 11 cm ceramic tile and held in place with an elastic band. A cup of the pre-selected mosquitoes were again lightly anaesthetised with carbon dioxide and transferred from the holding cup to the base of a 9 cm plastic Petri dish. The relevant impregnated polymer sheet was placed over the Petri dish and held in place with an elastic band. Once the mosquitoes had recovered from the anaesthetic, ca. 1 minute, the impregnated polymer sheet was placed on a holding rack, such that treated side was at an angle of […] to the horizontal.
(§8) After one hour an assessment of mosquito knockdown was made. A mosquito was said to be knocked down if it was unable to right itself once it had fallen over. The mosquitoes were lightly anaesthetised again, and removed from the Petri dish exposure chamber and returned to the holding cups. The mosquitoes were supplied with a 10% sucrose solution soaked in a cotton wool bung and held under culturing environmental conditions. An assessment of mortality was made 24 hours after exposure. A mosquito was said to be dead if it is unable to right itself once it had fallen over.

Aedes aegypti [2] = assay: as above; format: in vivo; details: AI content 2 wt %; for mortality: 24 hours after exposure; for knock-down: after one hour
Description: as §5, §6, §7, §8

[3] = system: Aedes aegypti (Yellow fever mosquito); assay: whole plant or invertebrate; details: Aedes aegypti; for pest or weed control at 20 ppm: 1 h, read-out: Knockdown; for mortality at 20 ppm: 48 h
Protocol: […] Once the deposits were dry, five non-blood fed adult female Aedes aegypti (between two to five days old) were added to each well, and sustained with a 10% sucrose solution in a cotton wool plug. Assessment of the knockdown after 1 hour, and mortality after 48 hours was carried out.
(§9) In case of multiple tests, the mean value is reported.

Anopheles stephensi [4] = assay: whole plant or invertebrate; details: Anopheles stephensi, 48 h
Protocol: (§10) The individual wells of six (6) well tissue culture plates were treated with 250 μl of an ethanol solution containing a test compound at a defined concentration. Once the deposits were dry, ten non-blood fed adult female Aedes aegypti or Anopheles stephensi (each between two to five day old) were added to each well, and sustained with a 10% sucrose solution in a cotton wool plug.
(§11) Assessment of the mortality was carried out at 48 hours.
(§12) Each treatment was replicated twice, with the mean mortality recorded.

Aedes aegypti [5] = assay: whole plant or invertebrate; details: Aedes aegypti, 48 h
Protocol: as §10, §11, §12

[6] = system: Anopheles stephensi (Indian malaria mosquito); assay: whole plant or invertebrate; details: Anopheles stephensi; for pest or weed control at 20 ppm: 1 h, read-out: Knockdown; for mortality at 20 ppm: 48 h
Protocol: […] Once the deposits were dry, five non-blood fed adult female Anopheles stephensi (between two to five days old) were added to each well, and sustained with a 10% sucrose solution in a cotton wool plug. Assessment of the knockdown after 1 hour, and mortality after 48 hours was carried out.
as §9

[7] = HDPE, polymer 8 to 12 weeks old
[8] = LDPE, polymer 8 to 12 weeks old

**Q.** How did the mortality at 25 ppm (VK7) turn out when `CO/C=C(/C(=O)OC)c1ccccc1Oc1ncc(C(F)(F)F)s1` [Compound 13, Methyl (E)-3-methoxy-2-[2-[5-(trifluoromethyl)thiazol-2-yl]oxyphenyl]prop-2-enoate] was run?
**A.** 61%

**Q.** And the mortality at 25 ppm (FUMOZ)?
**A.** 70%

**Q.** And the mortality at 25 ppm (An. Gambiae Kisumu sus)?
**A.** 94%

**Q.** And the mortality (Anopheles stephensi [1]; HDPE, polymer 2 to 4 weeks old)?
**A.** 100%

**Q.** And the knock-down (Anopheles stephensi [1]; HDPE, polymer 2 to 4 weeks old)?
**A.** 100%

**Q.** And the mortality (Anopheles stephensi [1]; [7])?
**A.** 0%

**Q.** And the knock-down (Anopheles stephensi [1]; [7])?
**A.** 90%

**Q.** And the mortality (Anopheles stephensi [1]; LDPE, polymer 2 to 4 weeks old)?
**A.** 100%

**Q.** What about the knock-down (Anopheles stephensi [1]; LDPE, polymer 2 to 4 weeks old) of the same molecule?
**A.** 100%

**Q.** And the mortality (Anopheles stephensi [1]; [8])?
**A.** 80%

**Q.** What about the knock-down (Anopheles stephensi [1]; [8]) of the same molecule?
**A.** 100%

**Q.** What about the mortality (Anopheles stephensi [1]; PP, polymer 2 to 4 weeks old) of the same molecule?
**A.** 100%

**Q.** And the knock-down (Anopheles stephensi [1]; PP, polymer 2 to 4 weeks old)?
**A.** 100%

**Q.** What about the mortality (Anopheles stephensi [1]; PP, polymer 8 to 12 weeks old) of the same molecule?
**A.** 10%

**Q.** And the knock-down (Anopheles stephensi [1]; PP, polymer 8 to 12 weeks old)?
**A.** 100%

**Q.** And the mortality (Aedes aegypti [2]; HDPE, polymer 2 to 4 weeks old)?
**A.** 73%

**Q.** And the knock-down (Aedes aegypti [2]; HDPE, polymer 2 to 4 weeks old)?
**A.** 100%

**Q.** And the mortality (Aedes aegypti [2]; HDPE, polymer 6 to 8 weeks old)?
**A.** 65%

**Q.** And the knock-down (Aedes aegypti [2]; HDPE, polymer 6 to 8 weeks old)?
**A.** 100%

**Q.** What about the mortality (Aedes aegypti [2]; LDPE, polymer 2 to 4 weeks old) of the same molecule?
**A.** 93%

**Q.** What about the knock-down (Aedes aegypti [2]; LDPE, polymer 2 to 4 weeks old) of the same molecule?
**A.** 100%

**Q.** And the mortality (Aedes aegypti [2]; LDPE, polymer 6 to 8 weeks old)?
**A.** 95%

**Q.** And the knock-down (Aedes aegypti [2]; LDPE, polymer 6 to 8 weeks old)?
**A.** 100%

**Q.** What about the mortality (Aedes aegypti [2]; PP, polymer 2 to 4 weeks old) of the same molecule?
**A.** 87%

**Q.** And the knock-down (Aedes aegypti [2]; PP, polymer 2 to 4 weeks old)?
**A.** 100%

**Q.** What about the mortality (Aedes aegypti [2]; PP, polymer 6 to 8 weeks old) of the same molecule?
**A.** 35%

**Q.** And the knock-down (Aedes aegypti [2]; PP, polymer 6 to 8 weeks old)?
**A.** 100%

**Q.** What about the pest or weed control at 20 ppm [3] of the same molecule?
**A.** 100%

**Q.** What about the mortality at 20 ppm [3] of the same molecule?
**A.** 100%

**Q.** What about the mortality at 5 ppm (Anopheles stephensi [4]) of the same molecule?
**A.** 100%

**Q.** What about the mortality at 5 ppm (Aedes aegypti [5]) of the same molecule?
**A.** 78%

**Q.** And the pest or weed control at 20 ppm [6]?
**A.** 100%

**Q.** And the mortality at 20 ppm [6]?
**A.** 100%

**Q.** What does the source list for `CO/C=C(/C(=O)OC)c1ccccc1Oc1cc(C(F)(F)F)ccn1` [Compound 8, Methyl (E)-2-[2-[[4-(trifluoromethyl)-2-pyridyl]oxy]phenyl]-3-methoxy-prop-2-enoate]?
**A.** mortality at 25 ppm (VK7): 20%; mortality at 25 ppm (FUMOZ): 56%; mortality at 25 ppm (An. Gambiae Kisumu sus): 61%; mortality (Anopheles stephensi [1]; HDPE, polymer 2 to 4 weeks old): 100%; knock-down (Anopheles stephensi [1]; HDPE, polymer 2 to 4 weeks old): 100%; mortality (Anopheles stephensi [1]; [7]): 80%; knock-down (Anopheles stephensi [1]; [7]): 100%; mortality (Anopheles stephensi [1]; LDPE, polymer 2 to 4 weeks old): 100%; knock-down (Anopheles stephensi [1]; LDPE, polymer 2 to 4 weeks old): 100%; mortality (Anopheles stephensi [1]; [8]): 100%; knock-down (Anopheles stephensi [1]; [8]): 90%; mortality (Aedes aegypti [2]; HDPE, polymer 2 to 4 weeks old): 53%; knock-down (Aedes aegypti [2]; HDPE, polymer 2 to 4 weeks old): 100%; mortality (Aedes aegypti [2]; HDPE, polymer 6 to 8 weeks old): 75%; knock-down (Aedes aegypti [2]; HDPE, polymer 6 to 8 weeks old): 100%; mortality (Aedes aegypti [2]; LDPE, polymer 2 to 4 weeks old): 100%; knock-down (Aedes aegypti [2]; LDPE, polymer 2 to 4 weeks old): 100%; mortality (Aedes aegypti [2]; LDPE, polymer 6 to 8 weeks old): 100%; knock-down (Aedes aegypti [2]; LDPE, polymer 6 to 8 weeks old): 100%; pest or weed control at 20 ppm [3]: 67%; mortality at 20 ppm [3]: 100%; mortality at 5 ppm (Anopheles stephensi [4]): 100%; mortality at 5 ppm (Aedes aegypti [5]): 100%; pest or weed control at 20 ppm [6]: 100%; mortality at 20 ppm [6]: 100%
